Experimental data: patent US4329495A, “Enkephalinase enzyme inhibiting compounds” (Pfizer Inc., priority 1981, dated 1982)

Experiments:
enkephalinase [1] = target: T1, enkephalinase (Rattus norvegicus, UniProt P07861); assay: inhibition of enkephalinase enzyme in vitro (Tyr-gly-gly formation from 3H-leucine-enkephalin); type: biochemical, Sprague-Dawley CD male rats (whole brain minus cerebellum); conditions: pH 7.7, 37° C., 1 hour
T1 construct: whole brain (minus cerebellum) is removed from Sprague-Dawley CD male rats; from tissue; host or cells: rat whole brain minus cerebellum (Sprague-Dawley CD male rats, Charles River); washed membranes solubilized with 1% Triton X-100
T1 sequence (P07861 1-750): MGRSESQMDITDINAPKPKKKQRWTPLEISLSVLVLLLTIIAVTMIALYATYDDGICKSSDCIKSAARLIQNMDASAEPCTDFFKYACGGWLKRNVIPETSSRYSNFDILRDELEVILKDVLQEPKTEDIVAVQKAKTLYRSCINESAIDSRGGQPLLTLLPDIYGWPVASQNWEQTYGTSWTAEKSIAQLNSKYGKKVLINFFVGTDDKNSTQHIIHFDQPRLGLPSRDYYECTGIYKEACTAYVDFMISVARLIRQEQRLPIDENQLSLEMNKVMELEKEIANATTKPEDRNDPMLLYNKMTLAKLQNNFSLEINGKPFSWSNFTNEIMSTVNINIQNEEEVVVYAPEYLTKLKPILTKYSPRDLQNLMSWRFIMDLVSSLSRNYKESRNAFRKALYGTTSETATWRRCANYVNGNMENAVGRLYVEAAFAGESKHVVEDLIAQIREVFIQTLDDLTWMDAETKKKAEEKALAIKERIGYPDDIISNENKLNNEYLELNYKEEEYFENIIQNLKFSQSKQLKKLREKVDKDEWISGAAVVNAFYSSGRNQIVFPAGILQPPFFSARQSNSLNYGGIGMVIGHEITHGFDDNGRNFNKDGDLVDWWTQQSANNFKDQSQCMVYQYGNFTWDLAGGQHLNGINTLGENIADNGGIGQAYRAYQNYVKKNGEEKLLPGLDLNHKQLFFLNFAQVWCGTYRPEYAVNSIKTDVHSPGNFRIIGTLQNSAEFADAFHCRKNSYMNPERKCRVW
Method: The compounds of the present invention are studied in vitro for inhibition of enkephalinase enzyme in the following manner. To prepare the enzyme, whole brain (minus cerebellum) is removed from Sprague-Dawley CD male rats (Charles River Breeding Laboratories, Inc., Wilmington, MA; 200-250 g.) following decapitation. The tissue is homogenized (Polytron, Brinkmann Instruments, Inc., Westbury, NY) in 30 volumes (w/v) of ice-cold 50 mM Tris-HCl tris(hydroxymethyl)methylamine hydrochloride, Fisher Scientific Co., Fair Lawn, NJ) pH 7.7 buffer. The homogenate in centrifuged at 50,000×g. for 15 minutes. The pellet is resuspended in 50 mM Tris-HCl pH 7.7 buffer and centrifuged at 50,000×g. for 15 minutes. The resultant pellet is resuspended and centrifuged 3 additional times as described above. The membrane pellet is dispersed in 15 volumes of 50 mM Tris-HCl pH 7.7 buffer containing 1% Triton X-100 (Rohm and Haas, Philadelphia, PA) and incubated at 37° C. for 45 minutes. After centrifugation at 100,000×g. for 60 minutes, the solubilized enzymes are frozen in 2 ml. aliquots (this preparation can be stored frozen for 3 months).
One set of control tubes contains boiled enzyme (heated at 100° C. for 10 minutes) for blank. The reaction is stopped by boiling tubes for 10 minutes, followed by centrifugation for 1 minute in the Beckman Microfuge centrifuge. A ten microl aliquot of each supernatant is spotted on a thin layer chromatography (TLC) plate (Silica Gel 60, 20×20 cm, E. Merck, Darmstadt, Germany) using 1-8 samples per plate. Ten microl of a standard mixture consisting of 0.4 mg./ml. tyrosine (tyr, Mann Research Laboratories, Inc., New York, NY), 1 mg./ml. L-tyrosylglycine (tyr-gly Sigma), 1 mg./ml. L-tyrosylglycylglycine (tyr-gly-gly, Sigma) and 1 mg./ml. leucine-enkephalin (leu-E, Calbiochem-Behring Corp., La Jolla, CA) are spotted on top of each incubation mixture spot, as well as separately on each plate, to aid in zone indentification.
Plates are dried and placed in covered glass tanks equilibrated with 100 ml. of isopropanol:ethyl acetate:5% acetic acid (2:2:1). After development of the TLC plates, the separated products were visualized by spraying with a ninhydrin:acetone (0.5%, w/v) solution and heating for 10 minutes at 100° C. in a vacuum oven. Rf values of standard markers are: tyr, 0.33; tyr-gly, 0.20: tyr-gly-gly, 0.13; leu-E, 0.47. The radioactive spots are identified by the added markers and scraped into scintillation vials to which 1 ml. ethanol is added, followed by 10 ml. Aquasol-2 (New England Nuclear). Vials are kept overnight and counted for radioactivity in a liquid scintillation counter. Tyr-gly-gly formation is based on the difference between total counts per minute for this TLC zone minus the corresponding value obtained by using boiled enzyme (blank). […]

[2] = tested on: supramaximal electroconvulsive shock (ECS); assay: anticonvulsant effect vs. supramaximal electroconvulsive shock (ECS) in mice; type: in vivo, Charles River males, Swiss CD strain; conditions: for ED50: Mus musculus, sc, mice, 1 hr. before ECS
Method: The anticonvulsant activity of the compounds of the present invention is determined by testing in mice, viz., Charles River males, Swiss CD strain (17-21 g.), fasted for 18 hr. before testing. Groups of mice are treated with a range of levels of the test compounds, and 1 hr. later with supramaximal electroconvulsive shock (ECS), administered for 0.2 sec. at 50 mA, 60 Hz, through transcorneal electrodes. After administration of the electrical stimulus, each mouse is observed for 10 sec. for the presence or absence of hind limb tonic extension. […] Blockade of supramaximal ECS in mice is a common laboratory test for clinical utility as an anticonvulsant, and certain known anticonvulsant drugs show activity in this test.

[3] = tested on: abdominal stretching after phenylbenzoquinone (PBQ); assay: analgesic activity: blockade of abdominal stretching after phenylbenzoquinone (PBQ); type: in vivo, mice, Carworth CF-1 strain; set-up: key: (a): No significant activity noted at this dose level; conditions: s.c., 20 min. pre-treatment
Method: To test for the analgesic activity of the compounds of the present invention, a chemical nociceptive stimulus is employed, viz., blockade of abdominal stretching after phenylbenzoquinone (PBQ). […] The animals to be used are fasted for 15-16 hr. before the start of the experiment. Fifteen mice (groups of 5) weighing 11-15 g. are employed per dose level. Compounds are given by the oral or subcutaneous route. Drug pre-treatment times are 1 hr. (p.o.) and 20 min. (s.c.). Pairs of mice are injected with 2 mg./kg. of PBQ i.p. and placed in a lucite box (11×7×9.5 in.) maintained at 40° by a thermostatically controlled water bath. Starting 5 min. later the animals are observed for 5 min. and the number of abdominal stretching responses per animal is recorded. A stretch is considered to represent an intermittent contraction of the abdomen, hind limb extension, pelvic rotation, or opisthotonos (the abdomen of the mouse touches the floor of the cage and is dragged the length of the cage). The degree of analgesic protection is calculated on the basis of the suppression of writhing relative to control animals run on the same day (% MPE). This test reflects the ultimate clinical utility of the compounds as analgesic agents.

hot plate jump test = conditions: mice; Roques et al.; cited from earlier work
tail withdrawal test = conditions: mice; Roques et al.; cited from earlier work
enkephalinase [4] = conditions: Roques et al., Nature 288, 286-288 (1980); cited from earlier work

SMILES	IC50 (enkephalinase [1])	ED50 [2]	Percent Blockade of Abdominal Stretching (% MPE) After Phenylbenzoquinone ([3]; 320 mg./kg.)	also measured
CSCC[C@@H](CO)NC(=O)[C@@H](CS)Cc1ccccc1 [I (X=H, R=H, n=2, m=0, R^1=CH3)]	480 nM	178 mg/kg	100 % MPE	Percent Blockade of Abdominal Stretching (% MPE) After Phenylbenzoquinone ([3]; 170 mg./kg.): 23 % MPE; Percent Blockade of Abdominal Stretching (% MPE) After Phenylbenzoquinone ([3]; 233 mg./kg.): 69 % MPE
CSCC[C@H](NC(=O)[C@@H](CS)Cc1ccccc1)C(=O)O [IV]	70 nM	141 mg/kg		Percent Blockade of Abdominal Stretching (% MPE) After Phenylbenzoquinone ([3]; 160 mg./kg.): 48 % MPE
CSCC[C@@H](CO)NC(=O)[C@@H](CS)Cc1ccc(Cl)cc1 [I (X=4-Cl, R=H, n=2, m=0, R^1=CH3)]			86 % MPE	
COc1ccc(C[C@@H](CS)C(=O)N[C@H](CO)CCSC)cc1 [II (X=4-OCH3, R=H, n=2, m=0, R^1=CH3)]			46 % MPE	
CSCC[C@@H](CO)NC(=O)[C@H](CS)Cc1ccc(Cl)cc1 [II (X=4-Cl, R=H, n=2, m=0, R^1=CH3)]			75 % MPE	
CSCC[C@@H](CO)NC(=O)[C@H](CS)Cc1ccccc1 [II (X=H, R=H, n=2, m=0, R^1=CH3)]	9600 nM		(a)	
CSCC[C@H](NC(=O)[C@H](CS)Cc1ccccc1)C(=O)O [III]	9.1 nM	74.1 mg/kg		Percent Blockade of Abdominal Stretching (% MPE) After Phenylbenzoquinone ([3]; 160 mg./kg.): 57 % MPE
O=C(O)CNC(=O)C(CS)Cc1ccccc1 (stereo not shown) [Thiorphan, N-(2-benzyl-3-mercaptopropionyl)glycine]		> 320 mg/kg		analgesic (antinociceptive) activity, hot plate jump test (in words) (hot plate jump test): elicit analgesic (antinociceptive) activity; analgesic (antinociceptive) activity, tail withdrawal test (in words) (tail withdrawal test): not in the so-called tail withdrawal test; enkephalinase inhibition (in words) (enkephalinase [4]): specific enkephalinase inhibitor; anticonvulsant activity (in words) ([2]; even at a much higher dose): inactive
COc1ccc(C[C@H](CS)C(=O)N[C@H](CO)CCSC)cc1 [I (X=4-OCH3, R=H, n=2, m=0, R^1=CH3)]			62 % MPE	
